In one assay the target is T1, RXRγ (Homo sapiens, UniProt P48443).
T1 sequence (P48443 1-463): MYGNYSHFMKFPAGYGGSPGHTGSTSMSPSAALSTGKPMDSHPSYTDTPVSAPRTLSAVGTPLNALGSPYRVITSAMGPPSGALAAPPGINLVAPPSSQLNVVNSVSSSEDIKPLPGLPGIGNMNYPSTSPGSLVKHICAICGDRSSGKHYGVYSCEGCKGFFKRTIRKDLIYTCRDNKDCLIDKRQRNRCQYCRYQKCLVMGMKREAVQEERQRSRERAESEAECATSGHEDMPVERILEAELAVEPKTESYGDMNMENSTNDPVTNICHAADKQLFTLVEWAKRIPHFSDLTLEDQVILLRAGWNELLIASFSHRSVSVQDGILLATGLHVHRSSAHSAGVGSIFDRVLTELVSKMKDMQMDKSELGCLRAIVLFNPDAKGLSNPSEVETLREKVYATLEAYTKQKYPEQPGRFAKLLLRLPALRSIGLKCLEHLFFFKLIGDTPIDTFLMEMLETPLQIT
The assay can be described thus: ligand binding assay, RXRγ. Conditions: read-out: RXR Bind Ki γ. The source says: (§1) Other assays described below, measure the ability of the compounds of the present invention to bind to, and/or activate various retinoid receptor subtypes. When in these assays a compound binds to a given receptor subtype and activates the transcription of a reporter gene through that subtype, then the compound is considered an agonist of that receptor subtype. […] In the below described assays the ability of the compounds to bind to RARα, RARβ, RARγ, RXRα, RXRβ and RXRγ receptors, and the ability or inability of the compounds to activate transcription of a reporter gene through these receptor subtypes can be tested. […] However, some of the compounds of the invention may behave as retinoid antagonists or partial antagonists and/or as inverse agonists. Because of the complex distribution of the different retinoid receptors in various organs of the mammalian body partial agonists and partial antagonists and compounds which have the characteristics of both may lend themselves to particularly useful therapeutic applications and may avoid serious side effects of conventional retinoid drugs.
(§2) A holoreceptor transactivation assay and a ligand binding assay which measure the antagonist/agonist like activity of the compounds of the invention, or their ability to bind to the several retinoid receptor subtypes, respectively, are described in published PCT Application No. WO WO93/11755 (particularly on pages 30-33 and 37-41) published on Jun. 24, 1993, the specification of which is also incorporated herein by reference. A detailed experimental procedure for holoreceptor transactivations has been described by Heyman et al. Cell 68, 397-406, (1992); Allegretto et al. J. Biol. Chem. 268, 26625-26633, and Mangelsdorf et al. The Retinoids: Biology, Chemistry and Medicine, pp 319-349, Raven Press Ltd., New York, which are expressly incorporated herein by reference. The results obtained in this assay are expressed in EC50 numbers, as they are also in the chimeric receptor transactivation assay. The results of ligand binding assay are expressed in Kd numbers. (See Cheng et al. Biochemical Pharmacology Vol. 22 pp 3099-3108, expressly incorporated herein by reference.)
(§3) Table 1 discloses the activity of certain exemplary compounds of the invention in the above-described chimeric receptor transactivation assay, holoreceptor transactivation assay and a ligand binding assays. Particularly, the transactivation data pertaining to RAR receptors were obtained in the chimeric assay, and the data pertaining to transactivation of RXR receptors were obtained in the holoreceptor transactivation assay.

The target of the next assay is T2, RXRβ (Mus musculus, UniProt P28704).
T2 construct: expressed in transfected cells
T2 sequence (P28704 1-520): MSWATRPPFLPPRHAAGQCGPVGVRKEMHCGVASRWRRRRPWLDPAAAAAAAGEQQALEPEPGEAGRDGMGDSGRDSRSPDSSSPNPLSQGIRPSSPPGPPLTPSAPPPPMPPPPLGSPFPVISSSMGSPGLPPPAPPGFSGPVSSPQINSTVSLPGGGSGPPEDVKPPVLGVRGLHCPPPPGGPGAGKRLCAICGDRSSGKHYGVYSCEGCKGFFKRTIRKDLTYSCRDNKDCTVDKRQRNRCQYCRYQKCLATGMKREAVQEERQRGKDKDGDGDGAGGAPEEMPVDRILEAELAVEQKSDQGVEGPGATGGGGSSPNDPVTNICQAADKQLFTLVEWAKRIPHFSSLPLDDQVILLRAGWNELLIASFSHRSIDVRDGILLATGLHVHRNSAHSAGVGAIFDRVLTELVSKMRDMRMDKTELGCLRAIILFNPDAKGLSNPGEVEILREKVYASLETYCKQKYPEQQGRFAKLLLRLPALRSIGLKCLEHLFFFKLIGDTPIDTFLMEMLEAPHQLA
Nature of the assay: holoreceptor transactivation assay, RXRβ. It is filed as cell-based.
From the text: as §1, §2, §3

The target of a further assay is T3, RXRα (Homo sapiens, UniProt P19793).
T3 construct: expressed in transfected cells
T3 sequence (P19793 1-462): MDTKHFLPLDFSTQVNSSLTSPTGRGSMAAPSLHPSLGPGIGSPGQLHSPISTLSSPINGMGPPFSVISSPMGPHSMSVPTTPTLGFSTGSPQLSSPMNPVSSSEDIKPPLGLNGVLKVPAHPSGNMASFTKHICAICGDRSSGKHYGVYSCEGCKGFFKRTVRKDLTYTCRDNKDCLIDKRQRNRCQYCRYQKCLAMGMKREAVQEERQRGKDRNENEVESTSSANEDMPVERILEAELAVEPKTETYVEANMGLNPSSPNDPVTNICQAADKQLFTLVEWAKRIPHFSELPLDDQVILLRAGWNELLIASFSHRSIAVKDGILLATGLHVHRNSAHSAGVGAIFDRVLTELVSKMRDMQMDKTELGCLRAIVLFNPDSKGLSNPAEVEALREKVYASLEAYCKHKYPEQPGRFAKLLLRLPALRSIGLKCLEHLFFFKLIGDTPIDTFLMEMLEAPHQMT
The assay can be described thus: ligand binding assay, RXRα. Conditions: read-out: RXR Bind Ki α.
From the text: as §1, §2, §3

A further assay deals with T4, RARγ (Homo sapiens, UniProt P13631).
T4 sequence (P13631 1-454): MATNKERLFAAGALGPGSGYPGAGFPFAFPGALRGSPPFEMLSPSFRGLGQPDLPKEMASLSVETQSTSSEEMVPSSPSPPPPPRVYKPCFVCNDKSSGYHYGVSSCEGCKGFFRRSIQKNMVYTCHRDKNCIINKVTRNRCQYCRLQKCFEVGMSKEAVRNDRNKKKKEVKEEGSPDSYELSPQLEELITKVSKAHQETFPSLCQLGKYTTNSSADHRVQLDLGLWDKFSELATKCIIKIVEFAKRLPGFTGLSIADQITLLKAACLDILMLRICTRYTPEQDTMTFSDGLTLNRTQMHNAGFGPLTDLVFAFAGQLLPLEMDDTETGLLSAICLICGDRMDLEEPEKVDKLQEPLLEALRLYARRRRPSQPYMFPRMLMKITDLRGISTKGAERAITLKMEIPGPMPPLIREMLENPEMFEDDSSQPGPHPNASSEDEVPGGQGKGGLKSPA
The assay can be described thus: ligand binding assay, RARγ. Conditions: read-out: RAR Bind Ki γ.
From the text: as §1, §2, §3

What is called Ki is a dissociation constant, usually derived from enzyme kinetics or from competition with a known ligand. Usually EC50 stands for the concentration needed to bring the measured effect to its halfway point. As for `CCN(c1ccc(C(=O)O)cc1)c1ccc2c(c1)C(C)(C)CCN2C(C)C` [Compound 12, 4-[(1-Isopropyl-4,4-dimethyl-1,2,3,4-tetrahydroquinolin-6-yl)ethylamino]benzoic acid], the results for the Ki on RXRγ, at RXRα and on RARγ were 1300 nM, 136 nM and 1000 nM, respectively. Also, on RXRβ (holoreceptor assay, read-out: RXR Trans EC50 β), the EC50 was 1000 nM. In addition, the Emax at RXRβ (relative to 10^-6 M cyclopropyl penta-2,4-dienoic acid reference, read-out: % efficacy, RXRβ transactivation) came to 75%.

(Values after patent US6127382A, “Amines substituted with a tetrahydroquinolinyl group an aryl or heteroaryl group and an alkyl group, having retinoid-like biological activity” (Allergan Sales, Inc., priority 1999, dated 2000).)
